# Assay: gradient 5% acetonitrile 3 min, to 50% in 2 min, to 85% in 15 min, held 3 min, 100 µL/min
# Conditions: column: Zorbax Extend-C18 2.1 x 50 mm; eluents: water / acetonitrile, 0.1% formic acid
# How it was run: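 Mixtures of ~100 pure standards were chromatographed on a Zorbax Extend-C18 column (2.1 × 50 mm, 1.8 μm) at 100 μL/min using water and acetonitrile, each with 0.1% formic acid. Detection used a quadrupole time-of-flight mass spectrometer in positive and negative ionization mode, and data collection spanned 3 months. Retention time was obtained from adduct peaks picked computationally and each checked manually.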
row,RP-LC retention time,SMILES
1,700 s,Cc1ccccc1NC(=O)c1cnc2c(c1)c(=O)n(C)c(=O)n2-c1ccccc1
2,724 s,COc1ccc(N2CC(c3nc(-c4ccccn4)no3)CC2=O)cc1Cl (stereo unspecified)
3,874 s,CCCCNC(=O)c1ccccc1NC(=O)C1CCN(C(=O)C(C)(C)C)CC1
4,1110 s,Cc1cc(-c2c(C)sc(C)c2S(=O)(=O)Nc2cccc(Cl)c2)n[nH]1
5,1050 s,O=C(NCc1cc(F)cc(F)c1)C1CCCN(c2nc3ccsc3c(=O)n2Cc2ccccc2)C1 (stereo unspecified)
6,653 s,Cc1cc(C)nc(NS(=O)(=O)c2ccc(NC(=O)c3c(F)cccc3F)cc2)n1
7,598 s,O=C(C1CC(=O)N(c2n[nH]c3cccc(F)c23)C1)N1CCN(Cc2ccccc2)CC1 (stereo unspecified)
8,728 s,COCCNC(=O)CN1C(=O)C2CCCCN2c2ccc(S(=O)(=O)N3CCCC3)cc21 (stereo unspecified)
9,729 s,COc1ccccc1-n1ncc2c(C(C)C)nnc(SCC(=O)NCc3ccco3)c21
10,642 s,COc1ccc(CCNC(=O)c2ccco2)cc1OC
11,855 s,COc1ccc(-n2ccc(=O)c(-c3nc(-c4ccc5c(c4)OCO5)no3)n2)cc1
12,822 s,COc1ccc(Cl)cc1N(C)C(=O)C(=O)Nc1ccc2nc3n(c(=O)c2c1)CCCCC3

# Continued, compound first:
row,SMILES,RP-LC retention time
1,Cc1ccc(Nc2c(-c3ccc(O)cc3)nc3cccc(C)n23)cc1,732 s
2,Cc1ccc(NC(=O)C2CCCN(c3nnc4cccc(C)n34)C2)cc1F (stereo unspecified),753 s
3,COc1ccc(CSc2nccc3c2ccn3CC(=O)N2CCN(c3ccccc3)CC2)cc1,786 s
4,O=C(NCc1cscn1)C1CCN(S(=O)(=O)c2ccc(Cl)s2)CC1,739 s
5,Cc1ccc(CNC(=O)N2CCCC(C)(C(=O)NCc3ccccc3C)C2)cc1 (stereo unspecified),916 s
6,Cc1oc(-c2ccc(Cl)cc2)nc1CN1CCCC(C(=O)N2CCN(C(=O)c3ccco3)CC2)C1 (stereo unspecified),679 s
7,COc1ccc2c(C)c(CC(=O)N3CCC(C(N)=O)CC3)c(=O)oc2c1OC,622 s
8,Cc1ccc2nc(-c3ccc(Cl)cc3)c(Nc3ccc4c(c3)OCO4)n2c1,756 s
9,Cc1cc(C)c(C(=O)N2CCC(CC(=O)NCCC(C)C)CC2)[nH]1,764 s
10,O=C(NCC1CCCO1)c1cccn1Cc1noc(-c2ccccc2)n1 (stereo unspecified),855 s
11,CC(C)c1ccc(CNC(=O)[C@@]23CCCC[C@H]2N(C)C(=O)CC3)cc1,786 s
12,CCCS(=O)(=O)N1CC(n2cc(C(=O)N3CCCC3)nn2)C1,654 s
13,COc1ccccc1-c1nnc(-c2cccc(S(=O)(=O)N3CCOCC3)c2)o1,802 s
14,CN(C1CCOCC1)C1CCN(C(=O)c2ccc(Cl)cc2)CC1,589 s
15,CCCN(CCC)CCCNC(=O)C1CCCN(c2ncc(-c3cccc(F)c3)cn2)C1 (stereo unspecified),747 s
16,Cc1ccc(/C=C/c2nc(-c3cccc(-c4ccnn4C)c3)no2)cc1,1270 s
17,O=C(CSc1nnc(-c2ccc3c(c2)OCO3)o1)N1CCc2ccccc2C1,990 s
18,CCCc1cc(N2CCN(c3ccccn3)CC2)n2nc(C)c(-c3ccccc3)c2n1,758 s
19,O=c1c(=O)n(-c2ccccc2)ccn1Cc1cccc(C(F)(F)F)c1,770 s
20,CN(CCc1noc(-c2ccccc2Cl)n1)C(=O)COc1ccccc1,900 s
21,COc1ccc(N2CCN(C(=O)Cn3ccc4c(c(C)nn4-c4ccccc4)c3=O)CC2)cc1,736 s
22,COc1cccc(CNC(=O)Cn2c(=O)c3cc(C4CC4)nn3c3ncccc32)c1,742 s
23,C[C@H]1CN(C(=O)c2cc(F)cc(F)c2)C[C@@H]1c1nc(-c2cccnc2)no1,795 s
24,CCc1nn2c(CNS(=O)(=O)Cc3ccc(C)c(C)c3)c(-c3ccccc3)nc2s1,1040 s

# — the METLIN SMRT retention time set (Domingo-Almenara et al. 2019)
